Reference: patent US11358933B2, “Compounds and methods for inhibiting CYP26 enzymes” (Queen's University at Kingston, priority 2017, dated 2022)

How the values were obtained:
[1] = system: Cyp26a1-luc construct in MCF-7 cells; test: Retinoid activity assay, Cyp26a1-luc reporter in MCF-7 cells; format: cell-based; conditions: 24 hours, firefly relative to Renilla luciferase
Description: This retinoid activity assay measures the ability of test compounds to induce expression of a transiently transfected RA sensitive reporter construct. In this assay, MCF-7 cells are transfected with a construct comprising an upstream promoter of the CYP26A1 gene containing 2 RA response elements driving expression of firefly luciferase (pCYP26A1-luc). Since CYP26A1 is highly inducible by RA in these cells, this construct serves as a sensitive reporter of retinod-like transcriptional activity.
MCF-7 cells were maintained in a RPMI-1640 medium containing 10% FBS. Exponentially growing cells were harvested by incubation in trypsin. Cells were then collected and plated in 24-well plates at 50,000 cells/well. Once cells reached 80-90% confluence (e.g., the next day), cells were transfected with two plasmids. The first plasmid was CYP26A1-luc construct (375 ng). The second plasmid was a control plasmid comprising the Renilla luciferase gene driven by constitutive thymidine kinase promoter (pRL-tk) (25 ng). Transfection was performed using FuGene 6 transfection reagent (Promega) with a 1:3 ratio of DNA:FuGene. 24 hours after transfection, cells were treated with test compounds diluted in DMSO in triplicate at 0.1, 1 and 10 μM final concentrations. As a positive control for reporter activation, cells were also treated with RA diluted in DMSO at the same concentrations listed above. DMSO treatment alone served as a negative control. After 24 hours of treatment, cells were harvested in passive lysis buffer (Promega) and luciferase activity in cell lysates were read using a luminometer. Data are expressed as the activity of firefly luciferase relative to Renilla luciferase (see Tables 3-5). For CYP26A1 inhibitor compounds, no activation of the reporter was detected, while the related retinoid-like compound induces luciferase expression.

CYP26B1 = CYP26B1 (Homo sapiens (Human), UniProt Q9NR63); test: Cell-based inhibitor assay ([3H]-RA metabolism), CYP26B1 stably transfected HeLa cells; conditions: for IC50: HeLa cell-based assay, 3 hours; for CYP26B1 Rel. to keto: IC50 relative to ketoconazole
Experimental: (§1) CYP26A1 or CYP26B1 stably transfected HeLa cells were maintained in Minimum Essential Medium (MEM) containing 10% fetal bovine serum (FBS) and 100 μg/mL hygromycin. Exponentially growing cells were harvested by incubation in trypsin. Cells were then collected and re-plated in 48-well culture plates at 5×10^5 cells in 0.2 mL of culture medium containing 0.05 μCi [^3H]-RA in the presence or absence of increasing concentrations of a test compound. The test compounds were diluted in dimethyl sulfoxide (DMSO) and then added in duplicate to wells at 0.01, 0.1, 1, 10 and 100 μM final concentration. As a positive control for inhibition of RA metabolism, cells were also incubated with ketoconazole at the same concentrations as above. Cells were incubated for 3 hours at 37° C. Retinoids were then extracted using the procedure of Bligh, et al., (1959), Canadian Journal of Biochemistry 37, 911-917, which was modified by using dichloromethane instead of chloroform. Each sample's water soluble radioactivity level was quantified using a β-scintillation counter (using Ecolume scintillation fluid, available from MP Biomedicals of Solon, Ohio, USA). IC50 values represented the concentration of inhibitor required to inhibit all trans-RA metabolism by 50%, and were derived from log transformed data.

CYP26A1 = CYP26A1 (Homo sapiens (Human), UniProt O43174); test: Cell-based inhibitor assay ([3H]-RA metabolism), CYP26A1 stably transfected HeLa cells; conditions: for IC50: HeLa cell-based assay, 3 hours; for CYP26A1 Rel. to keto: IC50 relative to ketoconazole
Experimental: as §1

THP-1 cells = test: Leukemia cell colony formation, THP-1 cells; format: cell-based, human; conditions: RA alone, without stroma
Experimental: This experiment is used to test the long-term proliferative ability of hematopoietic stem and progenitor cells as well as leukemic stem cells. Colony forming ability in long term cultures is indicative of stem/progenitor cell activity. […] For these experiments, bone marrow stromal and leukemic cell co-cultures are prepared as described above and treated with RA and/or CYP26 inhibitor compound for 72 hours. After the treatment period, leukemic cells are collected and re-plated in semi-solid methylcellulose medium to assess colony forming ability. 500 leukemic cells are plated per dish in 35 mm plates in 1.1 ml of MethoCult (available from STEMCELL Technologies, Vancouver, Canada). Triplicate plates are prepared per treatment, and cultures are grown for 14-16 days in a CO2 incubator. After the culture period colonies are counted under a dissecting microscope.

kasumi-1 human AML cells = test: CD34+CD38- LSC analysis by FACS, Kasumi-1 cells with or without OP9 stroma; format: cell-based; conditions: 1 μM RA alone, without stroma
Experimental: (§2) Many human non-APL AML cell lines are sensitive to RA-induced differentiation. However, co-culture of leukemic cells with bone marrow stromal cells can block this effect of RA. This assay tests the ability of CYP26 inhibitor compounds to overcome the protective effect that stromal cells have on leukemic cell differentiation. For these experiments, OP9 mouse bone marrow stromal cells are grown MEM-α containing 20% FBS, in 24 well plates until a cell monolayer is formed. OP9 cells are then irradiated (15Gy) using a GammaCell 20 cesium-137 source (located at Queen's University) in order to induce growth arrest. Leukemic cells are then added to the irradiated monolayers, or control wells without OP9 cells. AML cell lines (150,000 cells) are then plated onto OP9 monolayers in their appropriated growth medium; THP-1 RPMI-1640 medium containing 10% FBS; MDSL, RPMI-1640 medium containing 10% FBS and 10 ng/ml recombinant human IL-3; Kasumi-1, RPMI-1640 containing 20% FBS; MV4-11, IMDM containing 10% FBS. […] Stained cells are then sorted by FACS in a BD FACS Aria 3 flow cytometer (Queen's University) using FACS Diva software, to assess percentage of cells that are CD11b^+, the relative expression levels of CD11b (by median fluorescence intensity—MFI), or percentage of CD34^+CD38^− leukemic stem cells (LSCs). […]

MV4-11 cells [2] = test: Leukemia cell differentiation by FACS (CD11b+), MV4-11 cells with or without stroma; format: cell-based, human; conditions: RA alone, without stroma
Experimental: as §2

human AML THP-1 cells = test: Leukemia cell differentiation by FACS (PE-CD11b), THP-1 cells with or without OP9 stroma; format: cell-based; conditions: RA alone
Experimental: Many human non-APL AML cell lines are sensitive to RA-induced differentiation. However, co-culture of leukemic cells with bone marrow stromal cells can block this effect of RA. This assay tests the ability of CYP26 inhibitor compounds to overcome the protective effect that stromal cells have on leukemic cell differentiation. For these experiments, OP9 mouse bone marrow stromal cells are grown MEM-α containing 20% FBS, in 24 well plates until a cell monolayer is formed. OP9 cells are then irradiated (15Gy) using a GammaCell 20 cesium-137 source (located at Queen's University) in order to induce growth arrest. Leukemic cells are then added to the irradiated monolayers, or control wells without OP9 cells. AML cell lines (150,000 cells) are then plated onto OP9 monolayers in their appropriated growth medium; THP-1 RPMI-1640 medium containing 10% FBS; MDSL, RPMI-1640 medium containing 10% FBS and 10 ng/ml recombinant human IL-3; Kasumi-1, RPMI-1640 containing 20% FBS; MV4-11, IMDM containing 10% FBS. Cells are then treated for 72 hours with DMSO (vehicle control), RA (0.1 μM for THP-1 and MV4-11 cells, and 1 μM for Kasumi-1 cells), test CYP26 inhibitor compound, or the combination of RA and inhibitor compound. After the treatment period, leukemic cells are collected and stained with fluorophore labeled antibodies against cell surface antigens indicative of myeloid differentiation (PE-CD11b), or of stem cell populations (FITC-CD34, PE-CD38); all antibodies are available from BD Biosciences. Stained cells are then sorted by FACS in a BD FACS Aria 3 flow cytometer (Queen's University) using FACS Diva software, to assess percentage of cells that are CD11b^+, the relative expression levels of CD11b (by median fluorescence intensity—MFI), or percentage of CD34^+CD38^− leukemic stem cells (LSCs). Results are typically presented as the average of triplicates.

rhino mice = test: Rhino mouse model of acne; format: in vivo; conditions: topical 10 nmol RA, 5 times per week, two weeks
Experimental: These experiments test the ability of CYP26 inhibitor compounds and other retinoids for potential anti-acne efficacy in a mouse model of acne. The rhino mouse model is a hairless mutant that develops skin lesions similar to acne, and has been used extensively as a model to assess new acne treatments, as well as in vivo activity of retinoids. Test compounds or RA were dissolved in acetone/10% DMSO, and 0.4 ml was applied topically to the dorsal skin of animals (2 male+2 female) once a day for five days per week, for two consecutive weeks. On the day after the last treatment, animals were sacrificed and skin was collected from the treated are and processed for histology, and epidermal sheets prepared for visualization of utriculi. Histological sections were prepared by paraffin embedding of formalin fixed samples, and stained with hematoxylin and eosin. Photographs were taken under a Nikon Eclipse E600 microscope using Q Imaging software at 20× magnification. Epidermal sheets were prepared by treating skin samples for 5 days in 0.5% acetic acid at 4° C. for 5 days, after which the dermal and epidermal layers were carefully separated, and the epidermis was then dehydrated with a series of ethanol treatments (70%, 80%, 90% and 100%). […]

MV4-11 cells [3] = test: Leukemia cell apoptosis (FITC-Annexin V), MV4-11 cells; format: cell-based, human; conditions: RA alone
Experimental: RA can also induce apoptosis is a variety of cell types, including AML cells. This experiment tests CYP26 inhibitor compounds for their ability to rescue RA-induced apoptosis in the presence of bone marrow stromal cells. For these experiments MV4-11 AML cells are plated as above, in the presence and absence of stromal monolayers. Cells are then treated for 48 hours with RA (0.1 μM). After the treatment period, cells are stained with a FITC-labeled annexin V antibody (available from Thermofisher Scientific), which binds to the surface of apoptotic cells. Cells are then sorted by FACS in a as above and data are expressed as percentage of annexin V^+ (apoptotic) cells.

Sequence of CYP26B1 (Q9NR63 whole entry): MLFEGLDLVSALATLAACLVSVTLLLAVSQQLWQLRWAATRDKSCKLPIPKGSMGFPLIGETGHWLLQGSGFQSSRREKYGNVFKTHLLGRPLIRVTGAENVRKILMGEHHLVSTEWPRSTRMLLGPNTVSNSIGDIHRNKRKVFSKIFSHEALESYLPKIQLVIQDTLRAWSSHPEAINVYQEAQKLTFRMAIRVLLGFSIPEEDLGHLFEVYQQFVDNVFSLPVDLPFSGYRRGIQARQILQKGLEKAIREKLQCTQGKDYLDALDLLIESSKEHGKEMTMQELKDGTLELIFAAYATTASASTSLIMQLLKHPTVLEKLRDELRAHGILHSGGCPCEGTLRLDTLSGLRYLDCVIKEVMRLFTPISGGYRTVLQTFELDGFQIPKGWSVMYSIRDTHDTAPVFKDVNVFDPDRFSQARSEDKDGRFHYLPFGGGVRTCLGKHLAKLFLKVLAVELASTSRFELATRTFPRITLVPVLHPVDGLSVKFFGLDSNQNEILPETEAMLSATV
Sequence of CYP26A1 (O43174 whole entry): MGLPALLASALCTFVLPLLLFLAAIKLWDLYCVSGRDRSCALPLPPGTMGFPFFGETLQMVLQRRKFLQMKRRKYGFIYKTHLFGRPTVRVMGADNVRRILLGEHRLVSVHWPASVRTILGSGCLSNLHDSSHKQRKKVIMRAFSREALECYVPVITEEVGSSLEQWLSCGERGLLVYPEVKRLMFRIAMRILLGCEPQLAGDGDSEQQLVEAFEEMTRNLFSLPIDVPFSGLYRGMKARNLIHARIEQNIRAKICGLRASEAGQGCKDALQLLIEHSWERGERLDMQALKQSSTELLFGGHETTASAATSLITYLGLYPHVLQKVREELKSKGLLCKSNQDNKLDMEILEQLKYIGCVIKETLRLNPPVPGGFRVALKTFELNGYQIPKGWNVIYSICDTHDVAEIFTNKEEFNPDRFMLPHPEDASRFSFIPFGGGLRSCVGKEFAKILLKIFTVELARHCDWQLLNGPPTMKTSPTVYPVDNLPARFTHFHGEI

SMILES | Rel. Luciferase Activity (mean) ([1]; 0.1 μM) | Rel. Luciferase Activity (mean) ([1]; 1 μM) | Rel. Luciferase Activity (mean) ([1]; 10 μM) | IC50 (CYP26B1) [µM] | CYP26B1 Rel. to keto (CYP26B1) | IC50 (CYP26A1) [µM] | CYP26A1 Rel. to keto (CYP26A1) | Colony forming ability (THP-1 cells) | Number of CD34+CD38- cells (LSCs) (kasumi-1 human AML cells) | Percentage of CD11b+ cells (MV4-11 cells [2]) | CD11b marker expression (MFI) (human AML THP-1 cells) | Utriculi size and epidermis thickness (rhino mice) | Apoptosis (Annexin V positive cells) (MV4-11 cells [3])
CC(C)(C)c1cccc(C(=O)Cc2ccc(/C=C/C(=O)O)cc2)c1 [Compound 025] | .0144 | .01 | .0128 | 17.9 | 4.2 | 45.6 | 21.7 |  |  |  |  |  | 
C=CCc1cc(C(=O)Cc2ccc(CC(=O)O)cc2)cc2c1OC(C)(C)CC2(C)C [Compound 027] | .0116 | .0099 | .0121 | 8.8 | 0.9 | 8.6 | 1.2 |  |  |  |  |  | 
CC1(C)CC(C)(C)c2cc(C(=O)Cc3ccc(CC(=O)O)cc3)cc(C3CC3)c2O1 [Compound 028] | .0165 | .0094 | .0144 | > 1000 |  | > 1000 |  |  |  |  |  |  | 
CC(C)(C)c1cccc(B(O)Oc2ccc(/C=C/C(=O)O)cc2)c1 [Compound 029] | .0386 | .0384 | .0333 | 54.9 | 5.7 |  |  |  |  |  |  |  | 
CC1(C)CC(C)(C)c2cc(B3Oc4ccc(CC(=O)O)cc4O3)cc(C3CC3)c2O1 [Compound 030] | .0411 | .0343 | .0385 | 88.1 | 9.2 | 31.5 | 20 |  |  |  |  |  | 
CC(C)(C)c1cccc(-c2cc3cc(/C=C/C(=O)O)ccc3o2)c1 [Compound 031] | .0039 | .0047 | .0034 | 18.3 | 2 |  |  |  |  |  |  |  | 
CC(C)(C)c1cccc(-c2cc3cc(CC(=O)O)ccc3o2)c1 [Compound 032] | .0019 | .0015 | .0004 | 2.3 | 0.3 | 8.6 | 1.2 |  |  |  |  |  | 
CC1(C)CC(C)(C)c2cc(-c3cc4cc(CC(=O)O)ccc4o3)cc(C3CC3)c2O1 [Compound 033] | .0024 | .0026 | .0027 |  |  |  |  |  |  |  |  |  | 
Cc1ccc(C(C)(C)C)cc1-c1cc2cc(/C=C/C(=O)O)ccc2[nH]1 [Compound 034] |  |  |  | 0.5 | 0.2 | 9.6 | 1.9 |  |  |  |  |  | 
CC1=C(/C=C/C(C)=C/C=C/C(C)=C/C(=O)O)C(C)(C)CCC1 [RA, retinoic acid, reference compound] |  |  |  |  |  |  |  | reduced in THP-1 cells by exposure to RA | significantly reduced the number of these cells | increased the percentage of | significantly increases expression of the CD11b marker | reduction in the size of these utriculi, and a thickening of the epidermis | undergo apoptosis in response to RA
